Where two headings read alike, the source gives them in different places.
Columns and labels:
Format in all cases: physicochemical
[1] = Hydrolytic stability of aqueous compositions of latanoprost at 60° C.; details: compared to a solution excluding SAE-CD
Description: Latanoprost was measured in weighting boats (size 4×12×4 mm) by using a microbalance. The boats were put into 50 mL volumetric flask and 10 mM or 100 mM isotonic phosphate buffer (pH 5.5, 6.7 and 8.0) was added to the flask. The flask was shaken, sonicated and vortexed over an hour. The solution was filtered through a PVDF filter with 20 mL of plastic syringe. SBE-β-CyD 0, 1, 2.5, 5% w/v or BAK 0.02% were measured into 6-dram amber vials, and the filtered latanoprost solution (12 mL) was added to each vials. The vials were shaken for a few minutes at R.T, and then there were kept at 60° C. At various time points, the latanoprost in the aliquots was assayed by HPLC and the solution pH's were measured.

[2] = Phase solubility of latanoprost in the presence of SBE-β-CD (CAPTISOL); details: for pH: filtered supernatant
Description: SAE-CD increases the aqueous solubility of latanoprost. The phase solubility curve (FIG. 1) for latanoprost in the presence of SBE-β-CD (CAPTISOL®) was obtained according to Example 5. The intrinsic solubility of latanoprost in water, and in the absence of any solubilizing agent, is about 40 μg/mL. The invention provides a method of increasing the solubility of latanoprost in an aqueous composition, the method comprising including SAE-CD and latanoprost in the aqueous composition, wherein the molar ratio of SAE-CD to latanoprost, pH, concentration of SAE-CD, and concentration of latanoprost are as defined herein. In some embodiments, the SAE-CD increases the aqueous solubility of latanoprost by at least 10-fold.
Aqueous compositions containing latanoprost and different amounts of SBE-β-CD were prepared. Latanoprost (1 mg was measured into aluminum weighing boats (size 4×12×4 mm) by using a microbalance. The boats were put into the amber glass vials (Kimble vial, 1 dram) with Teflon-lined screw caps. Using a Rainin pipetman, 2.0 mL of SBE-β-CD test solution (0, 5, 10, or 20% w/v) were added to each vial. Each vial was capped, vortexed, placed on a rocker platform and gently mixed at room temperature. After 24 hours, the test vials were removed from the rocker platform, the solutions were centrifuged at 2500 rpm for 5 min, and the supernatants were filtered through 0.22 micron Millipore PVDF Millex-GV filters and the pH measured. The latanoprost in the aliquots was assayed by HPLC.

[3] = Photolytic (UV-B) stability of aqueous compositions of latanoprost; details: SAE-CD 1% or 5% w/v, pH 6.7, UV-B, compared to a solution excluding SAE-CD
Description: Latanoprost was measured in weighing boats (size 4×12×4 mm) by using a microbalance. The boats were put into 50 mL volumetric flask and 100 mM isotonic phosphate buffer (pH 6.7) was added to the flask. The flask was shaken, sonicated and vortexed over an hour. The solution was filtered through a PVDF filter with 20 mL of plastic syringe. SBE-β-CD 0, 1, 5% w/v and BAK 0.02% w/v were measured into each 10 mL volumetric flask and the filtered latanoprost solution were added to them. The flasks were shaken for a few minutes at R.T, and then these solutions and XALATAN® were put into quartz vessels. The Rayonet photochemical chamber reactor was used for the irradiation with RMR-3000A lamp. At various time points, the latanoprost in the aliquots was assayed by HPLC, and the solution pH's were measured before and after the light irradiation.

## CC(C)OC(=O)CCC/C=C\C[C@@H]1[C@@H](CC[C@@H](O)CCc2ccccc2)[C@H](O)C[C@@H]1O [Latanoprost, isopropyl (Z)-7-[(1R,2R,3R,5S)-3,5-dihydroxy-2-[(3R)3-hydroxy-5-phenylpentyl]-cyclopentyl]hept-5-enoate]
[1]; SAE-CD 1% or 5% w/v, pH 5.5 and 6.7, 60° C.
  hydrolytic degradation of latanoprost: sufficient to suppress hydrolytic degradation
[1]; SAE-CD, pH 8, 60° C.
  hydrolytic degradation of latanoprost: substantially reduce hydrolytic degradation
[2]; aqueous 5% w/v SBE-β-CD (CAPTISOL) solution, pH 7.41, aqueous with cosolvent or surfactant or cyclodextrin, thermodynamic from solid, with 5% w/v CAPTISOL, room temperature, 24 hours, read-out: Latanoprost (solubility)
  solubility at 24 h: > 500 µg/mL
[2]; aqueous 10% w/v SBE-β-CD (CAPTISOL) solution, pH 6.93, aqueous with cosolvent or surfactant or cyclodextrin, thermodynamic from solid, with 10% w/v CAPTISOL, room temperature, 24 hours, read-out: Latanoprost (solubility)
  solubility at 24 h: > 500 µg/mL
[2]; aqueous SBE-β-CD (SAE-CD, CAPTISOL) solution, aqueous with cosolvent or surfactant or cyclodextrin, thermodynamic from solid, solutions containing at least 5% w/v of SAE-CD, read-out: solubility of latanoprost
  solubility at 24 h: > 500 µg/mL
[2]; aqueous test solution without SBE-β-CD (0% w/v), pH 8.57, water, thermodynamic from solid, without CAPTISOL, room temperature, 24 hours, read-out: Latanoprost (solubility)
  solubility at 24 h: 40 µg/mL
[2]; with 5% w/v CAPTISOL
  pH: 7.41
[2]; with 10% w/v CAPTISOL
  pH: 6.93
[2]; without CAPTISOL
  pH: 8.57
[2]; water, thermodynamic from solid, in the absence of any solubilizing agent, read-out: intrinsic solubility of latanoprost in water
  solubility: ~40 µg/mL
[3]
  photolytic degradation of latanoprost: sufficient to suppress photolytic degradation

Reference: patent publication US11433082B2, “Composition containing sulfoalkyl ether cyclodextrin and latanoprost” (CyDex Pharmaceuticals, Inc., priority 2008, dated 2022)
